From US20070166777A1, “Methods for detecting lp-pla2 activity and inhibition of lp-pla2 activity” (priority 2004, published 2007)

Test: Pharmacokinetics in clinical studies, plasma level
Settings: human subjects, administered in vivo in clinical studies

- peak plasma level: 90 ng/mL
SMILES: CCN(CC)CCN(Cc1ccc(-c2ccc(C(F)(F)F)cc2)cc1)C(=O)Cn1c(SCc2ccc(F)cc2)nc(=O)c2c1CCC2 [Formula II, -(N-(2-(Diethylamino)ethyl)-N-(4-(4-trifluoromethylphenyl)benzyl)-aminocarbonylmethyl)-2-(4-fluorobenzyl)thio-5,6-trimethylenepyrimidin-4-one bitartrate]
